Source: patent US11123354B2, “Method for the treatment of osteoarthritis” (ABIOGEN PHARMA S.P.A., priority 2016, dated 2021)

How the values were obtained:
[1] = test system: COMP (Cartilage Oligomeric Matrix Protein); test: COMP final serum concentration, MIA-induced OA rats, weekly treatment; type: in vivo, Sprague Dawley rats
Experimental: As an experimental model of OA induction, one involving the intra-articular administration of MIA (monosodium iodoacetate) was used.
The rats were anesthetized by a gaseous mixture of isoflurane and oxygen, and maintained in a supine position. Once the infrapatellar ligament was identified by touch, a single intra-articular injection of monosodium iodoacetate (MIA) was performed in the right knee, after having shaved the skin of the area, while keeping the joint slightly flexed. The amount of MIA injected was equal to 1 mg dissolved in 50 μl of saline solution, having a pH of about 4.5, as measured just before administration. The joint of the left knee was instead injected with 50 μl of saline solution alone, and this represented the internal control.
The treatment involved 4 weekly administrations of sodium chlodronate, followed by one week of follow-up.
The study included 8 treatment groups, each consisting of 10 male Sprague Dawley rats, specifically five treatment groups consisting of OA rats, on which the chlodronate doses of 2, 10, 20, 30, and 40 mg/ml, corresponding to 0.1, 0.5, 1, 1.5, and 2 mg/rat, were tested, and the remaining three groups represented by untreated OA rats, operated but untreated Sham rats, and rats administered only with placebo at pH 4.5.
Considering that the presence of high concentrations of COMP in serum is an indication of the progression of osteoarthritic disease, the measurement of COMP (Cartilage Oligomeric Matrix Protein) final serum concentration is a measure of treatment efficacy.
In fact, COMP seems to play a fundamental role in the formation and structure of articular cartilage, as it has a regulatory function in assembling type II collagen fibers and, together with other matrix proteins, stabilizes the network of collagen fibers. During osteoarthritis, a greater amount of this protein was found in the blood, therefore a higher concentration of COMP in the serum corresponds to a more advanced stage of osteoarthritis degeneration.

[2] = test system: OA rats (bilateral anterior cruciate ligament surgical resection); test: Histomorphometric evaluation of the cartilage area, OA rats by anterior cruciate ligament resection, monthly treatment; type: in vivo, Sprague Dawley rats; conditions: 4 monthly i.a. doses
Experimental: In this study, the efficacy of a treatment performed by monthly intra-articular administration of sodium chlodronate on male “Sprague Dawley” rats affected by OA was evaluated. The treatment involved 4 monthly doses of sodium chlodronate, followed by one month of follow-up.
In the experimental model, OA was induced in rats by bilateral anterior cruciate ligament surgical resection in both hind limbs.
A volume of 50 μL of treatment solution, having a pH of about 4.5, as measured just before administration, was injected into the intra-articular cavity of each knee.
The study included 5 treatment groups, each consisting of 10 male rats, specifically two treatment groups consisting of OA rats, on which chlodronate doses of 8 and 12 mg/ml, corresponding to 0.4 and 0.6 mg/rat, were tested, and remaining three groups represented by untreated OA rats, operated but untreated Sham rats, and rats receiving placebo alone.
During the treatment period, the animals were regularly checked in relation to the increase in body mass, food intake and general health conditions. Clinical and hematological analyses were performed at the end of the study. […]
Histomorphometric quantitative measurements of the cartilage area were performed using Image-Pro Plus 4.1 software for windows (Media Cybernetics, Maryland, USA). […]

Sprague Dawley rats = test: Local tolerability of repeated intra-articular injections; type: in vivo
Experimental: With the aim to determine also the maximum dosages of chlodronate administrable in a single intra-articular injection, the local tolerability of intra-articular injections of sodium chlodronate, after repeated administration in the right knee of male and female Sprague Dawley rats, was investigated in this study.
Groups consisting of 5 male rats and 5 female rats each were subjected to intra-articular administration of aqueous solutions comprising 4, 14 and 40 mg/ml of sodium chlodronate (corresponding to dosages of 0.2, 0.7, and 2 mg/rat).
Each animal received a total of 12 intra-articular injections of chlodronate or placebo, administered as 3 injections per week (on Monday, Wednesday, and Friday) for 4 consecutive weeks. For the high dose group and the control group, the relative control groups with the same numerosity as the main groups were also provided.
During the treatment period, the animals were regularly checked in relation to the increase in body mass, food intake, and general health conditions.
At the end of the study, hematological analyses, chemical-clinical analyses, urino-analysis, and necropsy were performed.

[3] = 4, 14 and 40 mg/ml, 12 i.a. injections (3 per week, 4 weeks)
[4] = repeated intra-articular administration, rats

## O=P([O-])(O)C(Cl)(Cl)P(=O)([O-])O.[Na+].[Na+] [Sodium Chlodronate, sodium chlodronate]
[1]; 2 mg/mL weekly i.a.
  COMP Value: 5.46 ng/mL
[1]; 10 mg/mL weekly i.a.
  COMP Value: 5.52 ng/mL
[1]; 20 mg/mL weekly i.a.
  COMP Value: 5.24 ng/mL
[1]; 30 mg/mL weekly i.a.
  COMP Value: 4.9 ng/mL
[1]; 40 mg/mL weekly i.a.
  COMP Value: 3.52 ng/mL
[2]; 8 mg/ml (0.4 mg/rat)
  Cartilage Area Average Value ± SEM: 486 ± 157.7
[2]; 12 mg/ml (0.6 mg/rat)
  Cartilage Area Average Value ± SEM: 435 ± 125.9
Sprague Dawley rats; [3]
  hematological analyses with differential leucocyte count and urinary analyses: no alterations due to the treatment
  necropsy examination: No abnormalities
Sprague Dawley rats; 4, 14 and 40 mg/ml, 12 i.a. injections (3 per week, 4 weeks), all animals
  body weight and food consumption: normal
Sprague Dawley rats; 4, 14 and 40 mg/ml, 12 i.a. injections (3 per week, 4 weeks), male and female rats
  mortality, behavioral or clinical changes related to the treatment: neither mortality nor behavioral or clinical changes
Sprague Dawley rats; females, highest dose (40 mg/ml, 2 mg/rat), 12 i.a. injections
  renal effect / electrolyte serum concentration: slight renal suffering with an increase in electrolyte serum concentration
Sprague Dawley rats; males, highest dose (40 mg/ml, 2 mg/rat), 12 i.a. injections
  ALP and ALT values in serum (initial hepatic suffering): significant increase
Sprague Dawley rats; [4]
  Maximum Tolerated Dose (MTD): 40 mg/mL
  NOAEL dose (No Observed Adverse Effect Level): 14 mg/mL
